# “And” between values parts separate entries of the source, which are not always exact repeats. Equal entries are not always repeated. Where two headings read alike, the source gives them in different places.
# System: PA primary hepatocytes
# Test: HemoShear Technology, PA primary hepatocytes (Examples 10, 11)
# Format: cell-based, human
# From the text: For this experiment, we deployed the HemoShear REVEAL-Tx™ technology, which is based on the cone-and-plate configuration or viscometer combined with a porous polycarbonate membrane that mimics a filtering layer of sinusoidal endothelial cells (see: Dash A, Deering TG, Marukian S, et al. Physiological Hemodynamics and Transport Restore Insulin and Glucagon Responses in a Normal Glucose Milieu in Hepatocytes In Vitro. 73rd Scientific Sessions of the American Diabetes Association, 2013 (Chicago), and U.S. Pat. Nos. 7,811,782 and 9,500,642, and 9,617,521, each of which is incorporated by reference herein in its entirety).
# Hepatocytes from propionic academia patients are plated in a collagen gel sandwich on one side of the membrane replicating the polarized orientation found in vivo within the hepatic sinusoids. On the other side, medium is continuously perfused and surface shear rates are applied across a range of physiological values derived from sinusoidal flow rates in vivo while also controlling transport in the system with in- and out-flow tubing to each compartment. Effectively, this creates a flow-based culture system where hepatocytes are shielded from direct effects of flow, as they would be in vivo, but perfusion, nutrient gradients, and interstitial fluid movement are maintained.
# Biomarker levels are normalized to cell counts and cell volume to account for differences in the number of cells plated for each donor. […] This is most likely due to the presence of ^12C-succinyl-CoA in the sample, which has the same mass. In experiments described below, M-CoA is labeled with ^13C to determine a more accurate percent reduction. Compound 5 reduced the C3 concentration and the C3/C2 ratio with an EC50 similar to that for the reduction in P-CoA (FIGS. 7C, D).
# [1] = PA pHeps, HemoShear, average ± SD
structure (smiles),measurement,setting,value
"CCC(C)(C)C(=O)O [Compound 5, 2,2-dimethybutanoic acid]",EC90,"Homo sapiens, Hepatocyte, HemoShear, PA and MMA pHeps together, read-out: average EC90 value across all biomarkers",17.1 ± 13.4 µM
same,EC50,"Homo sapiens, Hepatocyte, PA donor 1, representative data (FIG. 7A), read-out: P-CoA reduction EC50",1840 nM
same,EC50,"Homo sapiens, Hepatocyte, PA donor 1, representative data (FIG. 7E), read-out: MCA reduction EC50",1960 nM
same,EC50,"Homo sapiens, Hepatocyte, PA pHeps, HemoShear, average ± SD, read-out: 2-Methylcitric acid (2MC) EC50",1100 ± 500 nM
same,EC90,"Homo sapiens, Hepatocyte, PA pHeps, HemoShear, average ± SD, read-out: 2-Methylcitric acid (2MC) EC90",7.9 ± 3.6 µM
same,EC50,"Homo sapiens, Hepatocyte, PA pHeps, HemoShear, average ± SD, read-out: 12C-Acetyl-Camitine (C2) EC50",4800 ± 200 nM
same,EC90,"Homo sapiens, Hepatocyte, PA pHeps, HemoShear, average ± SD, read-out: 12C-Acetyl-Camitine (C2) EC90",20.7 ± 13.1 µM
same,EC50,"Homo sapiens, Hepatocyte, PA pHeps, HemoShear, average ± SD, read-out: 12C-Propionyl-Carnitine (C3) EC50",2600 ± 1900 nM
same,EC90,"Homo sapiens, Hepatocyte, PA pHeps, HemoShear, average ± SD, read-out: 12C-Propionyl-Carnitine (C3) EC90",30.8 ± 26.4 µM
same,EC50,"Homo sapiens, Hepatocyte, PA pHeps, HemoShear, average ± SD, read-out: 12C-Propionyl-CoA (P-CoA) EC50",1900 ± 1000 nM
same,EC90,"Homo sapiens, Hepatocyte, PA pHeps, HemoShear, average ± SD, read-out: 12C-Propionyl-CoA (P-CoA) EC90",18.4 ± 11.3 µM
same,EC50,"Homo sapiens, Hepatocyte, PA pHeps, HemoShear, read-out: 12C-Acetyl-CoA EC50",2300 ± 1900 nM
same,EC90,"Homo sapiens, Hepatocyte, PA pHeps, HemoShear, read-out: 12C-Acetyl-CoA EC90",14.4 ± 13.6 µM
same,EC50,"Homo sapiens, Hepatocyte, PA pHeps, HemoShear, read-out: CoASH EC50",11600 ± 1200 nM
same,EC90,"Homo sapiens, Hepatocyte, PA pHeps, HemoShear, read-out: CoASH EC90",29.8 ± 24.3 µM
same,EC50,"Homo sapiens, Hepatocyte, PA pHeps, HemoShear, read-out: Compound 5-CoA (formation) EC50",3000 ± 1500 nM
same,EC90,"Homo sapiens, Hepatocyte, PA pHeps, HemoShear, read-out: Compound 5-CoA (formation) EC90",47.1 ± 39.7 µM
same,12C-Acetyl-CoA Percent change at 30 μM,"PA pHeps, HemoShear",54 ± 80.6%
same,CoASH Percent change at 30 μM,"PA pHeps, HemoShear",−31.3 ± 24.2%
same,average reduction in the C3/C2 ratio,"PA pHeps, HemoShear, at 30 μM",−2.1±1.2 log 2 fold change
same,2-Methylcitric acid (2MC) % change at 30 μM,[1],−78.6±12.9%
same,12C-Acetyl-Camitine (C2) % change at 30 μM,[1],54 ± 80.6%
same,12C-Propionyl-Carnitine (C3) % change at 30 μM,[1],−68.9±14.6% and −69.4 ± 16.2%
same,12C-Propionyl-CoA (P-CoA) % change at 30 μM,[1],−78.8±10.9%
same,EC90,"PA pHeps, HemoShear, average ± SD, read-out: 12C-Propionyl-Carnitine (C3) EC90",32.1 ± 29.3 µM
